By pIC50 is commonly meant −log10 of the IC50, conventionally taken in molar units.

pIC50: −log10 of the molar value.

In assay [1] the test system is A498. Description: CellTiter-Blue cell viability assay, A498 cell line. It is filed as cell-based. Conditions: Homo sapiens, 72 hour treatment, concentration that inhibits cell growth by 50 percent of control. On the procedure:
(§1) Cell viability in the presence of varying concentrations of the above listed compounds at different time points was used to assess cytotoxicity and the effect of the compounds on cell proliferation.
(§2) Cell viability was measured by the CellTiter-Blue® cell viability assay Promega (Madison, Wis.). This procedure measures the conversion of the indicator dye (resazurin) to resorufin, an indicator of cell viability. Following treatment, growth media was removed and cells were incubated with 20 μl of CellTiter-Blue® Reagent and growth media for 1-4 hours at 37° C. Fluorescence values were measured at 535/590 nm using a Beckman-Coulter DTX-880 microplate reader.
(§3) Cells were grown to 70% confluency, trypsinized, counted, and seeded in 96 well flat-bottom plates at a final concentration of 2.5×10^3-5×10^3 cells/well (Day 0). Cells were allowed to incubate in growth media for 24 hours to allow for maximum adhesion. Treatment with the test agents or standard agents began on Day 1 and continued for 72 hours. At the 72 hour timepoint, treatment containing media was removed. Viable cell numbers were quantified by the CellTiter-Blue® cell viability assay as described above. Experiments were repeated at least twice with the same concentrations to determine growth inhibitory activity. Results from these studies were used to calculate an IC50 value (concentration of drug that inhibits cell growth by 50 percent of control) for each compound.
(§4) For single agent and combination studies, data from each experiment were collected and expressed as % Cell Growth using the following calculation: % Cell Growth=(ftest/fvehicle)×100 where ftest is the fluorescence of the tested sample, and fvehicle is the fluorescence of the vehicle in which the drug is dissolved. Dose response graphs and IC50 values were generated using Prism 4 software (GraphPad) using the following equation: Y=(Top−Bottom)/(1+10^((log IC50−X)[…])) where X is the logarithm of concentration and Y is the response. Y starts at the Bottom and goes to Top with a sigmoid shape.
On the technique in general: Resazurin is reduced to fluorescent resorufin, in cell work by metabolically active cells.

Assay [2] deals with AN3CA. Description: CellTiter-Blue cell viability assay, AN3CA cell line. It is filed as cell-based. Conditions: Homo sapiens, AN3-CA, 72 hour treatment, concentration that inhibits cell growth by 50 percent of control. On the procedure: as §1, §2, §3, §4

Take `Cc1ccc(C(C)C)cc1-c1cc(C(F)(F)F)nn1-c1ccc(S(N)(=O)=O)cc1` [Compound 4]: the pIC50 in assay [1] was 5.96; in assay [2], 6.08.

As to `Cc1cc(-c2cc(C3CC3)nn2-c2ccc(C(=O)NO)cc2)ccc1Cl` [Compound 76], the pIC50 in assay [2] was 5.05.

For `CN(C)c1ccc(-c2ccn[nH]2)cc1-c1cc(C(F)(F)F)nn1-c1ccc(S(N)(=O)=O)cc1` [Compound 36], the pIC50 in assay [2] is 5.04.

Consider `NS(=O)(=O)c1ccc(-n2nc(C(F)(F)F)cc2-c2cc(-c3ccncc3)ccc2F)cc1` [Compound 20], for which, in assay [2], the pIC50 was 5.52.

As to `CN(C)c1ccc(Br)cc1-c1cc(C(F)(F)F)nn1-c1ccc(S(N)(=O)=O)cc1` [Example 2], the pIC50 in assay [1] was 5.92; in assay [2], 6.22.

Regarding `COc1ccc(C(C)C)cc1-c1cc(C(F)(F)F)nn1-c1ccc(S(N)(=O)=O)cc1` [Compound 7], the pIC50 in assay [1] is 4.92; in assay [2], 5.24.

Take `Cc1cc(-c2ccncc2)cc(-c2cc(C(F)(F)F)nn2-c2ccc(S(N)(=O)=O)cc2)c1` [Compound 22]: the pIC50 in assay [2] is 5.92.

As to `Cc1ccc(-c2ccn[nH]2)cc1-c1cc(C2CC2)nn1-c1ccc(S(N)(=O)=O)cc1` [Compound 73], the pIC50 was 5.10 in assay [1] and 5.48 in assay [2].

On to `NS(=O)(=O)c1ccc(-n2nc(C(F)(F)F)cc2-c2cccc(-c3ccn[nH]3)c2)cc1` [Compound 34], for which the pIC50 in assay [1] is 4.92; in assay [2], 5.68.

For the compound `Cc1ccc(-c2ccncc2)cc1-c1cc(C(F)(F)F)nn1-c1ccc(S(N)(=O)=O)cc1` [Example 11], the negative-log IC50 (pIC50) in assay [1] is 5.05; in assay [2], 8.00.

On to `Cc1ccc(-c2ccn[nH]2)cc1-c1cc(C(F)(F)F)nn1-c1ccc(S(N)(=O)=O)cc1` [Example 12], for which the values for the pIC50 in assay [1] and in assay [2] were 4.85 and 7.40, respectively.

Consider `Cc1ccc(Br)cc1-c1cc(C(F)(F)F)nn1-c1ccc(S(N)(=O)=O)cc1` [Example 1], for which the results for the pIC50 in assay [1] and in assay [2] were 4.96 and 5.12, respectively.

As to `Cc1ccc(-c2cccnc2)cc1-c1cc(C(F)(F)F)nn1-c1ccc(S(N)(=O)=O)cc1` [Compound 46], the pIC50 was 5.00 in assay [1] and 5.04 in assay [2].

Take `Cc1ccc(Br)c(-c2cc(C(F)(F)F)nn2-c2ccc(S(N)(=O)=O)cc2)c1` [Compound 6]: the pIC50 in assay [1] is 5.16; in assay [2] it was 5.82.

These data come from patent US10584119B2, “Pyrazole compounds and methods of use thereof” (TRANSLATIONAL DRUG DEVELOPMENT, LLC, priority 2013, dated 2020).
